pIC50: −log10 of the molar value. Activity calls are given as the source filed them. The calls are words filed in the database; no cut-off is given here.
Experiments:
[1] = biological target: T1, Peroxisome proliferator-activated receptor gamma (Homo sapiens) (UniProt P37231); assay: (§1) Antagonist activity at PPARgamma (unknown origin); details: filed as antagonist
T1 sequence (whole entry): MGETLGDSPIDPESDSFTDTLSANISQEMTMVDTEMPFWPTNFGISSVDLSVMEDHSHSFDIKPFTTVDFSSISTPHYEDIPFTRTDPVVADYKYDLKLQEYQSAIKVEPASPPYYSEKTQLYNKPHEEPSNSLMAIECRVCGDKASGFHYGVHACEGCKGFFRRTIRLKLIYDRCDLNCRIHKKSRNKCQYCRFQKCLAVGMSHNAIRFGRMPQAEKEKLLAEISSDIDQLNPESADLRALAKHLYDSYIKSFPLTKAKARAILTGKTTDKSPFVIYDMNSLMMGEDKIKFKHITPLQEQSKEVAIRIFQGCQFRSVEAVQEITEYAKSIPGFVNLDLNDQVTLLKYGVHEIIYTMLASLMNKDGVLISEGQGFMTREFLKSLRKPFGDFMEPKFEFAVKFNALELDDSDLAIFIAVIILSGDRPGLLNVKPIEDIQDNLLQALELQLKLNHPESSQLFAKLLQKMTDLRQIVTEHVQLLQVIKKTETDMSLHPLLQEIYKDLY

[2] = biological target: T1, Peroxisome proliferator-activated receptor gamma (Homo sapiens); assay: Inhibition of PPARgamma (unknown origin)
[3] = biological target: T2, Peroxisome proliferator-activated receptor gamma (Homo sapiens, UniProt P37231); assay: as §1
T2 sequence (P37231 whole entry): T1 sequence (whole entry)

Row | Activity [1] | SMILES | further results
1 | Active | Cc1cc([N+](=O)[O-])ccc1NS(=O)(=O)c1cc(Cl)ccc1Cl | 
2 |  | COc1ccc2nccc(NC(=O)c3cc([N+](=O)[O-])ccc3Cl)c2c1 | inhibition [2]: Active
3 | Active | COP(=O)(OC)OC(c1ccc(Cl)cc1)P(=O)(OC)OC (centres undefined) | 
4 |  | O=C(Nc1ccccc1)c1cc([N+](=O)[O-])ccc1Cl | pIC50 [3]: 8.48
